Assay [1] has as its target T1, ATPase family AAA domain-containing protein 2 (Homo sapiens, UniProt Q6PL18).
T1 sequence (Q6PL18 whole entry): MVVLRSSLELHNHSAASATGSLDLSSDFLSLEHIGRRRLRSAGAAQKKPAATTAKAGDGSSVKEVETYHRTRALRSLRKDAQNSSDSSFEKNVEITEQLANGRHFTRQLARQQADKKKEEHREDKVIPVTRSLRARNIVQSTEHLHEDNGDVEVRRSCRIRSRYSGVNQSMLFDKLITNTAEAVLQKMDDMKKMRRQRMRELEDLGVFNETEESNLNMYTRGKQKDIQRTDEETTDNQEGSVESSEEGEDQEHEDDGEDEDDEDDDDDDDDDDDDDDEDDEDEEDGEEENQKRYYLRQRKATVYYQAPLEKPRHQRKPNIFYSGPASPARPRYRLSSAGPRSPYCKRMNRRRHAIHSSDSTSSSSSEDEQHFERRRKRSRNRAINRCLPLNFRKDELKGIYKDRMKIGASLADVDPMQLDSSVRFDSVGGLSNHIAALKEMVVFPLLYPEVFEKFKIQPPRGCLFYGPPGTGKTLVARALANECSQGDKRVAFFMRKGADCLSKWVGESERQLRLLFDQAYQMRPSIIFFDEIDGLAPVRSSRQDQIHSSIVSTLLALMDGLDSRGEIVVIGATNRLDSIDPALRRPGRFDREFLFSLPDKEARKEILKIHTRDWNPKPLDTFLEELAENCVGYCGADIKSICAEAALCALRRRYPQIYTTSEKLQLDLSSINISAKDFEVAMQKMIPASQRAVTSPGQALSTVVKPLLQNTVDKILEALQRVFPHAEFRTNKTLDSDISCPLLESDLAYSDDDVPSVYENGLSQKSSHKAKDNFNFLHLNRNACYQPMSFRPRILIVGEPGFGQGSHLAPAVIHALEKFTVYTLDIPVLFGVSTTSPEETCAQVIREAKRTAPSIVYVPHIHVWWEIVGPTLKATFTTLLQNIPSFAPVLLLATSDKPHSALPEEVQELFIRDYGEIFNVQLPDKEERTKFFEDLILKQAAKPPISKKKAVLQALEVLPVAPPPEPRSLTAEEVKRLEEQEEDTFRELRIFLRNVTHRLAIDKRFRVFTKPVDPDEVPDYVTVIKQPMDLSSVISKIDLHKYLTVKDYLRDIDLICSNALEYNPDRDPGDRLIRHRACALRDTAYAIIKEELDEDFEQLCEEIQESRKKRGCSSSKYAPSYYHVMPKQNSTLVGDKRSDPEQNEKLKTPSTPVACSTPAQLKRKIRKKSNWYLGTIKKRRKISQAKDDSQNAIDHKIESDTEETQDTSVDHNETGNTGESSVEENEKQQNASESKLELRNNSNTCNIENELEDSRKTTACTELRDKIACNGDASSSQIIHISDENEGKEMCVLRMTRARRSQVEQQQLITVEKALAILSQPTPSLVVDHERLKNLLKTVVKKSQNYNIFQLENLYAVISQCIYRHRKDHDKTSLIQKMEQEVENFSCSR
The experiment in a line: Inhibition of recombinant human N-terminal GST-tagged ATAD2 bromodomain (981 to 1146 residues) expressed in Escherichia coli using biotinylated peptide SGRGK(Ac)GGKGLGKGGAKRHRKVLRDNGSGS as substrate incubated for 3 hrs by TR-FRET assay.

For assay [2], the target named is T1, ATPase family AAA domain-containing protein 2. The experiment in a line: Binding affinity to recombinant human N-terminal GST-tagged ATAD2 bromodomain (981 to 1146 residues) expressed in Escherichia coli at 10 degree C by isothermal titration calorimetry. On the technique in general: In ITC the heat of successive injections is recorded.

For 18 compounds, IC50 and Kd results are on record in ChEMBL document CHEMBL4619815, “Hitting a Moving Target: Simulation and Crystallography Study of ATAD2 Bromodomain Blockers” (ACS Med Chem Lett, 2020).

Molecules are shown by their SMILES. pIC50, pKd: −log10 of the molar value. Some results are limits rather than exact numbers.

As usually defined, the pIC50 is −log10 of the IC50, conventionally taken in molar units. Consider `COc1cccc(-c2sc(NC(=O)[C@@H](C)N)nc2C(C)=O)c1`, for which, in assay [1], the pIC50 is less than 3.82.
The pKd is the Kd on a negative log10 scale, so that one unit is a factor of ten. Turning to `CC(=O)c1csc(NC(=O)[C@H]2CNCCN2CCC2CCC(F)(F)CC2)n1`, the pKd in assay [2] is 4.60. Moreover, the negative logarithm of the IC50 (pIC50) in assay [1] is 4.82.
For the compound `CC(=O)c1nc(NC(=O)[C@@H](C)N)sc1-c1cccc(N)c1`, in assay [1], the pIC50 was less than 3.82.
On to `CC(=O)c1nc(NC(=O)[C@H]2CNCCN2CCC2CCC(F)(F)CC2)sc1-c1cncc(N)c1`, for which the pIC50 in assay [1] is less than 3.82.
Regarding `C[C@@H](N)C(=O)Nc1nc2c(s1)CCCC2=O`, the pIC50 in assay [1] was less than 3.82.
On the same count and under the same terms, the same measure for `CC(=O)c1csc(NC(=O)[C@@H](C)NC(=N)N)n1`: 3.85; for `CC(=O)c1nc(NC(=O)[C@@H](C)N)sc1-c1cccc(O)c1`: less than 3.82.
Still for that read-out and setting: the same measure for `CC(=O)c1nc(NC(=O)[C@H]2CNCCN2)sc1-c1ccc(N2CCCC2=O)cc1`: less than 3.82; for `CC(=O)c1nc(NC(=O)[C@@H](C)N)sc1-c1cncc(N)c1`: less than 3.82.
Turning to `CC(=O)c1nc(NC(=O)[C@@H](C)NC(=N)N)sc1-c1cncc(N)c1`, the negative-log IC50 (pIC50) in assay [1] was less than 3.82.
On the same count and under the same terms, next, `CC(=O)c1nc(NC(=O)C(C)(C)N)sc1-c1cncc(N)c1`: less than 3.82; `CC(=O)c1nc(NC(=O)C2(N)CCC2)sc1-c1cncc(N)c1`: 4.10.
`CC(=O)c1nc(NC(=O)[C@H]2CNCCN2)sc1-c1ccc(C(=O)N2CCOCC2)cc1`: the pIC50 in assay [1] was less than 3.82.
In the case of `CC(=O)c1nc(NC(=O)[C@H]2CNCCN2)sc1-c1cncc(N)c1`, in assay [1], the pIC50 was less than 3.82.
Turning to `CC(=O)c1nc(NC(=O)[C@@H](C)N)sc1-c1cccnc1`, the pIC50 in assay [1] is 4.02.
Turning to `CC(=O)c1csc(NC(=O)[C@@H](C)N)n1`, the negative-log IC50 (pIC50) in assay [1] was 3.47.
Consider `CC(=O)c1csc(NC(=O)[C@H]2CNCCN2)n1`, for which the negative-log IC50 (pIC50) in assay [1] was less than 3.82.
As for `CC(=O)c1csc(NC(=O)C(C)(C)N)n1`, the pIC50 in assay [1] was less than 3.82.
